In patent US8822691B2, “Pesticidal carboxamides” (Bayer CropScience AG, priority 2009, dated 2014):
Like-named read-outs stand apart in the source and are kept apart here.

Experiments:
Assay type in all cases: in vivo
[1] = system: Spodoptera litura; experiment: Test against tobacco cutworm (Spodoptera litura) larvae, leaf dip; conditions: active compound concentration of 100 ppm, third instar larvae on sweet potato leaves, after 7 days; for pest or weed control at 100 ppm: foliar, 168 h, read-out: insecticidal activity
Description: (§1) Unless not mentioned otherwise, the test solutions were prepared as follows:
(§2) Containing as solvent: Dimethylformamide, 3 parts by weight; and as emulsifier: Polyoxyethylene alkyl phenyl ether, 1 part by weight
(§3) To prepare the test solution, 1 part by weight of an active compound is mixed with the above-mentioned amount of solvent containing the above-mentioned amount of emulsifier, and the mixture is diluted with water to the desired concentration.
Leaves of sweet potato were immersed in the test solution at the appropriate concentration, and the leaves were dried in air. The leaves were then placed in a petri dish having a diameter of 9 cm, and ten Spodoptera litura at third instar larvae were released therein. The petri dishes were placed in a temperature-controlled chamber at 25° C. After 2 days and 4 days more sweet potato leaves were added. After 7 days, the number of dead larvae was counted to calculate the insecticidal activity. An insecticidal activity of 100% means that all larvae were killed, whereas an insecticidal activity of 0% means that no larva was killed. In the current test, the results of two petri dishes for each treatment were averaged.

[2] = system: Tetranychus urticae; experiment: Test against two-spotted spider mite (Tetranychus urticae), spray; conditions: for pest or weed control at 500 ppm: Tetranychus urticae, 168 h, read-out: acaricidal activity
Description: as §1, §2, §3
50 to 100 adult mites of Tetranychus urticae were inoculated to leaves of kidney bean at two-leaf stage planted in a pot of 6 cm in diameter. After one day, test solution at the appropriate concentration was sprayed thereon in a sufficient amount using a spray gun. After the spraying, the plant pot was placed inside a greenhouse, and after 7 days, the acaricidal activity was calculated. An acaricidal activity of 100% means that all mites were killed, whereas an acaricidal activity of 0% means that no mite was killed.

[3] = system: Aulacophora femoralis; experiment: Test against cucurbit leaf beetle (Aulacophora femoralis), leaf dip; conditions: active compound concentration of 500 ppm, second instar larvae on cucumber leaves, after 7 days
Description: as §1, §2, §3
Leaves of cucumber were immersed in the test solution at the appropriate concentration, and the leaves were dried in air. The leaves were then put in a plastic cup containing sterilized black soil and five Aulacophora femoralis at second instar larvae were released in the cup. The cups were placed in a temperature-controlled chamber at 25° C. After 7 days, the number of dead larvae was counted, and thus the insecticidal activity was calculated. An insecticidal activity of 100% means that all larvae were killed, whereas an insecticidal activity of 0% means that no larva was killed.

[4] = active compound concentration of 500 ppm, adult mites on kidney bean, after 7 days

SMILES	acaricidal activity [2, 4]	insecticidal activity [1]	insecticidal activity [3]	other results
CCc1cc(C(F)(C(F)(F)F)C(F)(F)C(F)(F)F)cc(C)c1NC(=O)c1ccc2nc(C#N)sc2c1 (centres unmarked) [Compound No. 4-34, 2-cyano-N-[2-ethyl-6-methyl-4-(1,1,1,2,3,3,4,4,4-nonafluorobutan-2-yl)phenyl]-1,3-benzothiazole-6-carboxamide]				pest or weed control at 100 ppm [1]: 100%; pest or weed control at 500 ppm [2, 4]: 100%
O=C(Nc1c(Br)cc(C(F)(C(F)(F)F)C(F)(F)C(F)(F)F)cc1SC(F)(F)F)c1ccc2c(ccc[n+]2[O-])c1 (centres unmarked) [2-184]	100%			
Cc1cc(C(F)(C(F)(F)F)C(F)(F)Br)cc(C)c1NC(=O)c1ccc2nc(C#N)ccc2c1 (centres unmarked) [2-191]	100%	100%	100%	
CCc1cc(C(F)(C(F)(F)F)C(F)(F)F)cc(CC)c1NC(=O)c1ccc2nc(C#N)ccc2c1 [2-46]	100%	100%	100%	
CCc1cc(C(F)(C(F)(F)F)C(F)(F)C(F)(F)F)cc(C)c1NC(=O)c1ccc2ncsc2c1 (centres unmarked) [4-33]	100%	100%	100%	
Cc1cc(C(F)(C(F)(F)F)C(F)(F)C(F)(F)F)cc(C)c1NC(=O)c1ccc2nc(C#N)ccc2c1 (centres unmarked) [2-87]	100%	100%	100%	
Cc1cc(C(F)(C(F)(F)F)C(F)(F)Br)cc(C)c1NC(=O)c1ccc2ncccc2c1 (centres unmarked) [2-189]	100%			
CCc1cc(C(F)(C(F)(F)F)C(F)(F)C(F)(F)F)cc(C)c1NC(=O)c1ccc2nc(C#N)cc(Br)c2c1 (centres unmarked) [Compound No. 2-269, 4-bromo-2-cyano-N-[2-ethyl-6-methyl-4-(1,1,1,2,3,3,4,4,4-nonafluorobutan-2-yl)phenyl]quinoline-6-carboxamide]				pest or weed control at 100 ppm [1]: 100%; pest or weed control at 500 ppm ([3]; Aulacophora, foliar, 168 h, read-out: insecticidal activity): 100%; pest or weed control at 500 ppm [2, 4]: 100%
CCc1cc(C(F)(C(F)(F)F)C(F)(F)F)cc(C)c1NC(=O)c1ccc2cc(Br)ccc2c1 [Compound No. 1-3, 6-bromo-N-[2-ethyl-4-(1,1,1,2,3,3,3-heptafluoropropan-2-yl-2-yl)-6-methylphenyl]-2-naphthamide]				pest or weed control at 500 ppm ([2]; in Phaseolus vulgaris): 100%
N#Cc1ccc2cc(C(=O)Nc3c(Br)cc(C(F)(C(F)(F)F)C(F)(F)F)cc3SC(F)(F)F)ccc2n1 [2-66]	100%	100%	100%	
Cc1cc(C(F)(C(F)(F)F)C(F)(F)F)cc(OC(F)F)c1NC(=O)c1ccc2nc(C#N)ccc2c1 [2-261]	100%	100%	100%	
N#Cc1ccc2cc(C(=O)Nc3c(Br)cc(C(F)(C(F)(F)F)C(F)(F)F)cc3Br)ccc2n1 [2-64]	100%	100%	100%	
N#Cc1ccc2cc(C(=O)Nc3c(Br)cc(C(F)(C(F)(F)F)C(F)(F)C(F)(F)F)cc3Br)ccc2n1 (centres unmarked) [2-110]	100%	100%	100%	
O=C(Nc1c(I)cc(C(F)(C(F)(F)F)C(F)(F)C(F)(F)F)cc1SC(F)(F)F)c1ccc2c(ccc[n+]2[O-])c1 (centres unmarked) [2-187]	100%			
CCc1cc(C(F)(C(F)(F)F)C(F)(F)Br)cc(C)c1NC(=O)c1ccc2ncccc2c1 (centres unmarked) [2-192]	100%		100%	
O=C(Nc1c(I)cc(C(F)(C(F)(F)F)C(F)(F)Br)cc1I)c1ccc2c(ccc[n+]2[O-])c1 (centres unmarked) [2-199]	100%		100%	
N#Cc1ccc2cc(C(=O)Nc3c(I)cc(C(F)(C(F)(F)F)C(F)(F)Br)cc3I)ccc2n1 (centres unmarked) [2-200]		100%	100%	
Cc1cc(C(F)(C(F)(F)F)C(F)(F)C(F)(F)F)cc(C)c1NC(=O)c1ccc2ncccc2c1 (centres unmarked) [2-85]	100%			
CCOC(c1cc(C)c(NC(=O)c2ccc3ncccc3c2)c(CC)c1)(C(F)(F)F)C(F)(F)F [2-72]	100%			
